Organism: Rattus norvegicus
Assay: DrugMatrix - Regimen: Daily Repeat
Assay type: toxicity, organism-based, Sprague-Dawley
Parameters: regimen Daily Repeat, gender Male, age 6-8 weeks
Details: in vivo, po, route oral GAVAGE, vehicle 100 % WATER; for ABSOLUTE BASOPHIL / ABSOLUTE EOSINOPHIL / ABSOLUTE LYMPHOCYTE / ABSOLUTE MONOCYTE / ABSOLUTE SEGMENTED NEUTROPHIL / BASOPHIL / EOSINOPHIL / ERYTHROCYTE COUNT / HEMATOCRIT / HEMOGLOBIN / LEUKOCYTE COUNT / LYMPHOCYTE / MEAN CORPUSCULAR HEMOGLOBIN / MEAN CORPUSCULAR HEMOGLOBIN CONCENTRATION / MEAN CORPUSCULAR VOLUME / MONOCYTE / NEUTROPHIL / NUCLEATED RED BLOOD CELLS: tissue Blood; for ALANINE AMINOTRANSFERASE / ALKALINE PHOSPHATASE / ASPARTATE AMINOTRANSFERASE / BLOOD UREA NITROGEN / CARBON DIOXIDE / CHLORIDE / CHOLESTEROL / CREATINE PHOSPHOKINASE / CREATININE / GLUCOSE / LACTATE DEHYDROGENASE / LIPASE / PHOSPHORUS / POTASSIUM / SODIUM / TOTAL BILIRUBIN / TOTAL PROTEIN / URIC ACID: tissue Plasma
[1] = 0 mg/kg, 72 h, dose level Control, time 3 day
[2] = 0 mg/kg, 120 h, dose level Control, time 5 day
[3] = 18 mg/kg, 72 h, dose level Low, time 3 day

CN(C)CCCN1c2ccccc2Sc2ccc(Cl)cc21 [CHLORPROMAZINE]
ABSOLUTE BASOPHIL [1]: 0 CELLS/uL | ABSOLUTE EOSINOPHIL [1]: 108.67 CELLS/uL | ABSOLUTE LYMPHOCYTE [1]: 10696 CELLS/uL | ABSOLUTE MONOCYTE [1]: 216.67 CELLS/uL | ABSOLUTE SEGMENTED NEUTROPHIL [1]: 1045.33 CELLS/uL | BASOPHIL [1]: 0% | EOSINOPHIL [1]: 1% | ERYTHROCYTE COUNT [1]: 5.87 x10E6/uL | HEMATOCRIT [1]: 38.5% | HEMOGLOBIN [1]: 13.6 G/DL | LEUKOCYTE COUNT [1]: 12.07 x10E3/uL | LYMPHOCYTE [1]: 88.33% | MEAN CORPUSCULAR HEMOGLOBIN [1]: 23.47 pg | MEAN CORPUSCULAR HEMOGLOBIN CONCENTRATION [1]: 35.7 G/DL | MEAN CORPUSCULAR VOLUME [1]: 65.63 fL | MONOCYTE [1]: 2% | NEUTROPHIL [1]: 8.67% | NUCLEATED RED BLOOD CELLS [1]: 0 /100WBC | ALANINE AMINOTRANSFERASE [1]: 60.67 u/L | ALKALINE PHOSPHATASE [1]: 377.67 u/L | ASPARTATE AMINOTRANSFERASE [1]: 85.33 u/L | BLOOD UREA NITROGEN [1]: 15 mg/dL | CARBON DIOXIDE [1]: 37 mmol/L | CHLORIDE [1]: 97.67 MEQ/L | CHOLESTEROL [1]: 70.67 mg/dL | CREATINE PHOSPHOKINASE [1]: 361.67 u/L | CREATININE [1]: 0.18 mg/dL | GLUCOSE [1]: 154 mg/dL | LACTATE DEHYDROGENASE [1]: 99 u/L | LIPASE [1]: 12.67 u/L | PHOSPHORUS [1]: 9.53 mg/dL | POTASSIUM [1]: 5.55 MEQ/L | SODIUM [1]: 143.1 MEQ/L | TOTAL BILIRUBIN [1]: 0.2 mg/dL | TOTAL PROTEIN [1]: 5.97 G/DL | URIC ACID [1]: 0.77 mg/dL | ABSOLUTE BASOPHIL [2]: 0 CELLS/uL | ABSOLUTE EOSINOPHIL [2]: 0 CELLS/uL | ABSOLUTE LYMPHOCYTE [2]: 9535 CELLS/uL | ABSOLUTE MONOCYTE [2]: 182 CELLS/uL | ABSOLUTE SEGMENTED NEUTROPHIL [2]: 783 CELLS/uL | BASOPHIL [2]: 0% | EOSINOPHIL [2]: 0% | ERYTHROCYTE COUNT [2]: 5.35 x10E6/uL | HEMATOCRIT [2]: 34.17% | HEMOGLOBIN [2]: 13.17 G/DL | LEUKOCYTE COUNT [2]: 10.5 x10E3/uL | LYMPHOCYTE [2]: 89.67% | MEAN CORPUSCULAR HEMOGLOBIN [2]: 24.67 pg | MEAN CORPUSCULAR HEMOGLOBIN CONCENTRATION [2]: 38.57 G/DL | MEAN CORPUSCULAR VOLUME [2]: 63.9 fL | MONOCYTE [2]: 1.67% | NEUTROPHIL [2]: 8.67% | NUCLEATED RED BLOOD CELLS [2]: 0 /100WBC | ALANINE AMINOTRANSFERASE [2]: 46.67 u/L | ALKALINE PHOSPHATASE [2]: 343.67 u/L | ASPARTATE AMINOTRANSFERASE [2]: 71 u/L | BLOOD UREA NITROGEN [2]: 11.67 mg/dL | CARBON DIOXIDE [2]: 27 mmol/L | CHLORIDE [2]: 105.33 MEQ/L | CHOLESTEROL [2]: 70.67 mg/dL | CREATINE PHOSPHOKINASE [2]: 208.67 u/L | CREATININE [2]: 0.1 mg/dL | GLUCOSE [2]: 161.33 mg/dL | LACTATE DEHYDROGENASE [2]: 58 u/L | LIPASE [2]: 9.33 u/L | PHOSPHORUS [2]: 12.7 mg/dL | POTASSIUM [2]: 5.59 MEQ/L | SODIUM [2]: 147.1 MEQ/L | TOTAL BILIRUBIN [2]: 0.17 mg/dL | TOTAL PROTEIN [2]: 5.97 G/DL | URIC ACID [2]: 0.73 mg/dL | ABSOLUTE BASOPHIL [3]: 0 CELLS/uL | ABSOLUTE EOSINOPHIL [3]: 0 CELLS/uL | ABSOLUTE LYMPHOCYTE [3]: 8093.33 CELLS/uL | ABSOLUTE MONOCYTE [3]: 80.67 CELLS/uL | ABSOLUTE SEGMENTED NEUTROPHIL [3]: 392.67 CELLS/uL | BASOPHIL [3]: 0% | EOSINOPHIL [3]: 0% | ERYTHROCYTE COUNT [3]: 5.16 x10E6/uL | HEMATOCRIT [3]: 34.47% | HEMOGLOBIN [3]: 13.4 G/DL | LEUKOCYTE COUNT [3]: 8.57 x10E3/uL | LYMPHOCYTE [3]: 94.33% | MEAN CORPUSCULAR HEMOGLOBIN [3]: 25.97 pg | MEAN CORPUSCULAR HEMOGLOBIN CONCENTRATION [3]: 38.87 G/DL | MEAN CORPUSCULAR VOLUME [3]: 66.8 fL | MONOCYTE [3]: 1% | NEUTROPHIL [3]: 4.67% | NUCLEATED RED BLOOD CELLS [3]: 0 /100WBC | ALANINE AMINOTRANSFERASE [3]: 60.67 u/L | ALKALINE PHOSPHATASE [3]: 286 u/L | ASPARTATE AMINOTRANSFERASE [3]: 101 u/L | BLOOD UREA NITROGEN [3]: 15 mg/dL | CARBON DIOXIDE [3]: 38 mmol/L | CHLORIDE [3]: 98 MEQ/L | CHOLESTEROL [3]: 65.67 mg/dL | CREATINE PHOSPHOKINASE [3]: 499.33 u/L | CREATININE [3]: 0.32 mg/dL | GLUCOSE [3]: 131 mg/dL | LACTATE DEHYDROGENASE [3]: 79 u/L | LIPASE [3]: 10 u/L | PHOSPHORUS [3]: 8.37 mg/dL | POTASSIUM [3]: 5.57 MEQ/L | SODIUM [3]: 142.3 MEQ/L | TOTAL BILIRUBIN [3]: 0.23 mg/dL | TOTAL PROTEIN [3]: 5.97 G/DL
